Source: PMC3983190, “Chemical Derivatives of a Small Molecule Deubiquitinase Inhibitor Have Antiviral Activity against Several RNA Viruses” (PLoS ONE, 2014)
Values after ≈ are worked out from the molar mass of the structure shown. Like-named read-outs stand apart in the source and are kept apart here.

Tests used:
MNV-1 [1] = settings: 5 µM; for decrease in MNV-1 titers compared to DMSO: 30 minute pre-treatment, RAW 264.7, 8 hours; for viral titer decrease compared to DMSO: administered 1 hour post infection, RAW 264.7
Tulane virus = Tulane virus infection of LLC-MK2 cells, plaque assay; assay type: cell-based; settings: 5 µM, 30 minutes pre-treatment, MOI 5, 24 hours
Source text: (§1) Cells were freeze-thawed twice.

physchem = settings: kinetic from dmso stock
[2] = test system: Encephalomyocarditis virus (EMCV); test: Encephalomyocarditis virus infection of Vero cells, plaque assay; assay type: cell-based; settings: 5 µM, 30 minutes pre-treatment, MOI 5, 12 hours
Source text: as §1

in vitro [3] = settings: mouse
[4] = test system: Vesicular Stomatitis Virus (VSV); assay type: cell-based
La Crosse virus (LCV) = test: La Crosse virus infection of Be2-c cells, plaque assay; assay type: cell-based; settings: 5 µM, 30 minutes pre-treatment, MOI 5, 12 hours
Source text: as §1

[5] = WST-1 cellular toxicity assay, HG23 replicon-bearing cells; assay type: cell-based; settings: human, HG23 Norwalk virus replicon-bearing cells, WST-1 viability
MNV-1 [6] = settings: previously determined by the authors; cited from earlier work
Sindbis virus = Sindbis virus infection of Vero cells, plaque assay; assay type: cell-based; settings: 5 µM, 30 minutes pre-treatment, MOI 5, 12 hours
Source text: as §1

in vitro [7] = settings: Swiss Webster, mouse
Norwalk virus = test: HuNoV replicon assay in HG23 cells, Norwalk virus genomes by qRT-PCR; settings: for reduction of detectable Norwalk virus genomes compared to DMSO: 5 µM, 24 hours, HG23 cells; for EC50: Norwalk virus, HG23, 24 h, read-out: EC50 HG23
[8] = mouse
[9] = Aqueous solubility as per Lipinski et al.; settings: for solubility: kinetic from dmso stock
[10] = WST-1 cellular toxicity assay, bone marrow-derived macrophages; settings: Swiss Webster, mouse
RNA viruses = test: Antiviral activity across the panel of RNA viruses tested; assay type: cell-based; settings: 5 µM
Source text: as §1

CCC[C@H](NC(=O)/C(C#N)=C/c1cccc(Br)n1)c1ccccc1 [WP1130, reference compound]
decrease in MNV-1 titers compared to DMSO (MNV-1 [1]): 2.0 log
effect on Tulane virus infectious titers (Tulane virus): significantly reduced infectious titers
solubility (physchem): ~3.2 µM (≈ 1.23 µg/mL)
effect on EMCV infectious titers [2]: significantly reduced infectious titers
CC50 (in vitro [3]): 9.95 µM
inhibition of VSV infection [4]: not inhibited
effect on La Crosse virus infectious titers (La Crosse virus (LCV)): significantly reduced infectious titers
CC50 at 24 h [5]: 6.2 µM
EC50 (MNV-1 [6]): 5.06 µM
effect on Sindbis virus infectious titers (Sindbis virus): significantly reduced infectious titers
CC50 (in vitro [7]): 6.46 µM

CCCC(NC(=O)/C(C#N)=C/c1cccc(F)n1)c1ccc(OCCN2CCOCC2)cc1 (stereo not drawn) [Compound 7]
decrease in MNV-1 titers compared to DMSO (MNV-1 [1]): 2.60 log
viral titer decrease compared to DMSO (MNV-1 [1]): 1.51 log
reduction of detectable Norwalk virus genomes compared to DMSO (Norwalk virus): ~80%
EC50 (Norwalk virus): 3.37 µM
effect on Tulane virus infectious titers (Tulane virus): significantly decreased infection
effect on EMCV infectious titers [2]: not of EMCV, although a trend towards antiviral activity was present
effect on La Crosse virus infectious titers (La Crosse virus (LCV)): significantly decreased infection
CC50 [8]: 13.7 µM
CC50 at 24 h [5]: 6.12 µM
solubility [9]: 14 µM (≈ 6.34 µg/mL)
effect on Sindbis virus infectious titers (Sindbis virus): significantly decreased infection
CC50 [10]: 7.11 µM

CCC(NC(=O)/C(C#N)=C/c1cccc(Br)n1)c1ccc(O)cc1 (stereo not drawn) [Compound 4]
decrease in MNV-1 titers compared to DMSO (MNV-1 [1]): 1.95 log
viral titer decrease compared to DMSO (MNV-1 [1]): 1.73 log
reduction of detectable Norwalk virus genomes compared to DMSO (Norwalk virus): approximately 30%
EC50 (Norwalk virus): 6.52 µM
effect on Tulane virus infectious titers (Tulane virus): effective
effect on EMCV infectious titers [2]: only effective against Tulane virus
effect on La Crosse virus infectious titers (La Crosse virus (LCV)): only effective against Tulane virus
CC50 [8]: 11 µM
CC50 at 24 h [5]: 9.26 µM
expected aqueous solubility (not determined, limited availability) ([9]; relative to WP1130): more soluble than WP1130 but less soluble than compound 7
effect on Sindbis virus infectious titers (Sindbis virus): only effective against Tulane virus
CC50 [10]: 15.2 µM

CCC[C@H](NC(=O)C(C#N)Cc1cccc(Br)n1)c1ccccc1 (stereo partly drawn) [Compound 2]
CC50 [8]: 24.9 µM
CC50 at 24 h [5]: 8.71 µM
CC50 [10]: 8.53 µM
antiviral activity against any of the viruses tested (RNA viruses): no antiviral activity

CCC[C@H](NC(=O)/C=C/c1cccc(Br)n1)c1ccccc1 [Compound 1]
CC50 [8]: 24.7 µM
CC50 at 24 h [5]: 7.2 µM
CC50 [10]: 10.4 µM
antiviral activity against any of the viruses tested (RNA viruses): no antiviral activity

CCCC(NC(=O)/C(C#N)=C/c1cccc(Br)n1)c1ccc(OCCN(C)C)cc1 (stereo not drawn) [Compound 3]
CC50 [8]: 9.43 µM
CC50 at 24 h [5]: 7.82 µM
solubility [9]: 19 µM (≈ 8.96 µg/mL)
CC50 [10]: 6.12 µM
antiviral activity against any of the viruses tested (RNA viruses): no effect

CCCC(NC(=O)/C(C#N)=C/c1ccccn1)c1ccc(OCCN2CCOCC2)cc1 (stereo not drawn) [Compound 6]
decrease in MNV-1 titers compared to DMSO (MNV-1 [1]): 2.55 log
viral titer decrease compared to DMSO (MNV-1 [1]): 2.50 log
reduction of detectable Norwalk virus genomes compared to DMSO (Norwalk virus): about 64%
EC50 (Norwalk virus): 4.17 µM
effect on Tulane virus infectious titers (Tulane virus): significantly reduced infectious titers
effect on EMCV infectious titers [2]: significantly reduced infectious titers
effect on La Crosse virus infectious titers (La Crosse virus (LCV)): significantly reduced infectious titers
CC50 [8]: 7.46 µM
CC50 at 24 h [5]: 10.4 µM
solubility [9]: 160 µM (≈ 69.5 µg/mL)
effect on Sindbis virus infectious titers (Sindbis virus): significantly reduced infectious titers
CC50 [10]: 11.1 µM

CCCC(NC(=O)/C(C#N)=C/c1cccnc1F)c1ccc(OCCN2CCOCC2)cc1 (stereo not drawn) [Compound 5]
decrease in MNV-1 titers compared to DMSO (MNV-1 [1]): 2.52 log
viral titer decrease compared to DMSO (MNV-1 [1]): 2.67 log
reduction of detectable Norwalk virus genomes compared to DMSO (Norwalk virus): about 64%
EC50 (Norwalk virus): 4.28 µM
effect on Tulane virus infectious titers (Tulane virus): effective
effect on EMCV infectious titers [2]: only effective against Tulane virus
effect on La Crosse virus infectious titers (La Crosse virus (LCV)): only effective against Tulane virus
CC50 [8]: 15.4 µM
CC50 at 24 h [5]: 7.61 µM
solubility [9]: 14 µM (≈ 6.34 µg/mL)
effect on Sindbis virus infectious titers (Sindbis virus): only effective against Tulane virus
CC50 [10]: 11.3 µM
